Measured values as given in US20250353864A1, “INDAZOLE CONTAINING MACROCYCLES AND THEIR USE” (BLOSSOMHILL THERAPEUTICS, INC., priority 2022, published 2025).

Columns and labels:
Type in all cases: biochemical
[1] = target: EGFR L858R mutant (Homo sapiens (Human), UniProt P00533, L858R); assay: HotSpot radiometric kinase assay, EGFR L858R mutant; details: 10 μM ATP
Summary of the method: (§1)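 Compounds were preincubated ~20 min with kinase/substrate in pH 7.5 Hepes buffer (MgCl2, EGTA, Brij35, BSA, Na3VO4, DTT, 1% DMSO), then ATP plus 33P-ATP was added to 10 μM final. After 120 min at room temperature, reactions were spotted on P81 filters and washed; IC50 values came from curve fits.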

[2] = target: EGFR (D770_N771insNPG) (Homo sapiens (Human), UniProt P00533, INS770NPG); assay: HotSpot radiometric kinase assay, EGFR (D770_N771insNPG); details: 10 μM ATP, read-out: EGFR (Δ770_N771insNPG) IC50
Sequence of EGFR (D770_N771insNPG) (P00533 other isoform, or with tags, fused parts or gaps del 1-668/ins NPG behind 770 limits assumed): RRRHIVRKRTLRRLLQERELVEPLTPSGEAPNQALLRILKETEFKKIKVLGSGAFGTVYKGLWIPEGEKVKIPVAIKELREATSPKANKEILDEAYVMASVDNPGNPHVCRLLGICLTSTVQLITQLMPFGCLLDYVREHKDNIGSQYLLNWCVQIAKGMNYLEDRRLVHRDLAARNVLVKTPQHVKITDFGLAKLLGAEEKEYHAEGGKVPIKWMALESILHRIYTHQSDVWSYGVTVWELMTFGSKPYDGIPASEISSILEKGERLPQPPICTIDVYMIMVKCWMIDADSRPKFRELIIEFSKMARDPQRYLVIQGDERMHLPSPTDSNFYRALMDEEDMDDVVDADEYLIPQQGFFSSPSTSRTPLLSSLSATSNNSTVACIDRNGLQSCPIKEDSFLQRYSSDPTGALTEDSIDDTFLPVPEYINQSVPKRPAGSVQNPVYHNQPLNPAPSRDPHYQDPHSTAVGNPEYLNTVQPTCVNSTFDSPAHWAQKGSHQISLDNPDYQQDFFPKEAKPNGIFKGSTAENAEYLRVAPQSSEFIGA
Summary of the method: as §1

[3] = target: CLK3 (Homo sapiens (Human), UniProt P49761); assay: Inhibition of CLK3 kinase activity evaluated at Nanosyn (ADP-Glo); details: ADP-Glo luminescence
Sequence of CLK3 (P49761 whole entry, canonical isoform): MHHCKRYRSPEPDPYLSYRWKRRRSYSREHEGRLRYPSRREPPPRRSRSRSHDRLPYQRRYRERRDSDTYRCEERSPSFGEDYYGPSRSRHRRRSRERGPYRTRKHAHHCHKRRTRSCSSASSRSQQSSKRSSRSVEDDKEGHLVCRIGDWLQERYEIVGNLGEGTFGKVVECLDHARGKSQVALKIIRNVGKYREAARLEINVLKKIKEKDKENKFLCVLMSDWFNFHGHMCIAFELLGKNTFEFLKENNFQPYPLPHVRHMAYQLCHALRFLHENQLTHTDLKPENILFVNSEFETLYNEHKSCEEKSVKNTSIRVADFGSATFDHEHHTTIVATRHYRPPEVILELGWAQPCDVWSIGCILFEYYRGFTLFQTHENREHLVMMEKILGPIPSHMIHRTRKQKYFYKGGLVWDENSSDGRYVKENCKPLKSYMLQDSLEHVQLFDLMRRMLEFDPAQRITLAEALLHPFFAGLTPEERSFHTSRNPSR
Summary of the method: (§2)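 ADP-Glo luminescence (40 min depletion, 10 min detection) quantifies ADP from ATP-initiated phosphorylation of substrate by each CLK isoform in HEPES pH 7.5 buffer, 1% DMSO, assay-specific incubation. %-inhibition calculated against uninhibited and enzyme-free controls.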

[4] = target: EGFR Δ746-750/C797S mutant (Homo sapiens (Human), UniProt P00533, C797S/DEL746-750); assay: HotSpot radiometric kinase assay, EGFR Δ746-750/C797S mutant; details: 10 μM ATP
Sequence of EGFR Δ746-750/C797S mutant (P00533 other isoform, or with tags, fused parts or gaps C797S/del 1-668/del 746-750 limits assumed): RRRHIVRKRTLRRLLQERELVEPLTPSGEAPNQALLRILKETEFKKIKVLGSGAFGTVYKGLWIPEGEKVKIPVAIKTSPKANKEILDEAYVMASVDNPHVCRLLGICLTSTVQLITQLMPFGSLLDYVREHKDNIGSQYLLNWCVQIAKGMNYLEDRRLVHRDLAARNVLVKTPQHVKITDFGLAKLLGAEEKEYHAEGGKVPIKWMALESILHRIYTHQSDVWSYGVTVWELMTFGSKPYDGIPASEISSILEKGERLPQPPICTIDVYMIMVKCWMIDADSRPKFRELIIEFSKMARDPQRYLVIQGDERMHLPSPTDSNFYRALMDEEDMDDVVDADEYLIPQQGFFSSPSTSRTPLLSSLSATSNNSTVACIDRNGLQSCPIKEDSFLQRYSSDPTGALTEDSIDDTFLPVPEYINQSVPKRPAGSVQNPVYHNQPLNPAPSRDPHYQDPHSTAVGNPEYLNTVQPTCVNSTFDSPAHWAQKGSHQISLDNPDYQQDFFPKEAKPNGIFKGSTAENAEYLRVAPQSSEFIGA
Summary of the method: as §1

[5] = target: EGFR L858R/T790M mutant (Homo sapiens (Human), UniProt P00533, L858R/T790M); assay: HotSpot radiometric kinase assay, EGFR L858R/T790M mutant; details: 10 μM ATP
Sequence of EGFR L858R/T790M mutant (P00533 25-1210 T790M/L858R): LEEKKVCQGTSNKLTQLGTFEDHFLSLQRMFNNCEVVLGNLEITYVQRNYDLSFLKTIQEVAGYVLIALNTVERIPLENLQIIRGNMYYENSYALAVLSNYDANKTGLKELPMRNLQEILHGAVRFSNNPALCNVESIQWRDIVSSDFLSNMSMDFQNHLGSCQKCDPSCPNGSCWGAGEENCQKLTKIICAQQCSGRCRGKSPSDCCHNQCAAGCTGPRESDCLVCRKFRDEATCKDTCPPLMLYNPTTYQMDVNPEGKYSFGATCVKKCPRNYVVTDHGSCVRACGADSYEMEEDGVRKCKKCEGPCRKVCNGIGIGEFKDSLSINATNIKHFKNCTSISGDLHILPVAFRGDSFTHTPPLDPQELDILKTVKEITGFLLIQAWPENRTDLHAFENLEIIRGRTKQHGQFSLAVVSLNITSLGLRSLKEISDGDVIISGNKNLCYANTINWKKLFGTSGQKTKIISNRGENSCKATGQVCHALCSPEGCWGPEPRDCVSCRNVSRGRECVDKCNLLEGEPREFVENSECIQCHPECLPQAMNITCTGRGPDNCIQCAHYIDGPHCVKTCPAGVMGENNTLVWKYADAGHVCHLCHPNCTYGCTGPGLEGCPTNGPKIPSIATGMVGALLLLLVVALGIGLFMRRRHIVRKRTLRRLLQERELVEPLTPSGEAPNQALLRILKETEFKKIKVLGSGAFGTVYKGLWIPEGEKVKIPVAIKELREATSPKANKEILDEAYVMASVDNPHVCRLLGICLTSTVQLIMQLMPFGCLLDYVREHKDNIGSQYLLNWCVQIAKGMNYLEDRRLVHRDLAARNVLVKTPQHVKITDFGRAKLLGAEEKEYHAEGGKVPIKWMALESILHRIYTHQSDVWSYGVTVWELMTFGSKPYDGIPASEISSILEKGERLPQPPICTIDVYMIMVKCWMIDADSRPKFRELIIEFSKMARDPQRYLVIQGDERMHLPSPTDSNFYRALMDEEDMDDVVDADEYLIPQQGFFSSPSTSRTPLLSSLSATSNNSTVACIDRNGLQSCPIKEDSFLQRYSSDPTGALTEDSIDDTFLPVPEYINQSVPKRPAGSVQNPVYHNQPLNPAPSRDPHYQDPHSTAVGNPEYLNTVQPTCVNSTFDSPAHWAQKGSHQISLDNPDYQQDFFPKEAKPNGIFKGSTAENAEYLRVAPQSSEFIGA
Summary of the method: as §1

[6] = target: CLK1 (Homo sapiens (Human), UniProt P49759); assay: Inhibition of CLK1 kinase activity evaluated at Nanosyn (ADP-Glo); details: ADP-Glo luminescence
Sequence of CLK1 (P49759 whole entry): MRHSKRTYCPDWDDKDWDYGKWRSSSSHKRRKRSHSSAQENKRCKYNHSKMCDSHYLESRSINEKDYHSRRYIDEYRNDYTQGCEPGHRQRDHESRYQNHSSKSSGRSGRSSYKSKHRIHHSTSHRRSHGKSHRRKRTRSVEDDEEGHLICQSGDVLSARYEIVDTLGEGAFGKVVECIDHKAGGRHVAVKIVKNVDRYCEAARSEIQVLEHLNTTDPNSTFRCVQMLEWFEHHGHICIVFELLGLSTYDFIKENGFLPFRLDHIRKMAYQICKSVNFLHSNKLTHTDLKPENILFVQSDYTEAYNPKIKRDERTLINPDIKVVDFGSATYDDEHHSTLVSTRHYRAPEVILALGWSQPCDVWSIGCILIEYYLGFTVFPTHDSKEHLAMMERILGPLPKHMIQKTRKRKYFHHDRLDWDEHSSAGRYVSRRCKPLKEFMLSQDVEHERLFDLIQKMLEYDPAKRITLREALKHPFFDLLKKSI
Summary of the method: as §2

[7] = target: CLK2 (Homo sapiens (Human), UniProt P49760); assay: Inhibition of CLK2 kinase activity evaluated at Nanosyn (ADP-Glo); details: ADP-Glo luminescence
Sequence of CLK2 (P49760 whole entry): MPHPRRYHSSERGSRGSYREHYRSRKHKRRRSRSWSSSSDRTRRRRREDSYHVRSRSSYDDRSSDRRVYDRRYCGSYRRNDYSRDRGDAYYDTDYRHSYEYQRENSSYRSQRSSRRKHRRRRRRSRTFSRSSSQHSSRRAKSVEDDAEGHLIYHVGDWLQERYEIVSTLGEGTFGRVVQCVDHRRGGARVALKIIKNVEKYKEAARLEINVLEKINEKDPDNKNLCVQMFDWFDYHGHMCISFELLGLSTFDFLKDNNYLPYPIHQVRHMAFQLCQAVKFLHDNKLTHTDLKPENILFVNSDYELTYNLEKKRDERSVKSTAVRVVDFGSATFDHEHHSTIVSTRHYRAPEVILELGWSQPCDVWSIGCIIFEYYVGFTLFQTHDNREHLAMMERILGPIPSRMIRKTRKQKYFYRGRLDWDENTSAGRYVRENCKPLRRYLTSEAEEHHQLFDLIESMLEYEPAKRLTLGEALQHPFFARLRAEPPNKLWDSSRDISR
Summary of the method: as §2

[8] = target: CLK4 (Homo sapiens (Human), UniProt Q9HAZ1); assay: Inhibition of CLK4 kinase activity evaluated at Nanosyn (ADP-Glo); details: ADP-Glo luminescence
Summary of the method: as §2

[9] = target: EGFR WT (Homo sapiens (Human), UniProt P00533); assay: HotSpot radiometric kinase assay (Reaction Biology), EGFR WT; details: 10 μM ATP
Summary of the method: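 10 μM ATP (33P-labelled, final); 120 min RT; P81 filter capture, 0.75% phosphoric acid washes. Cpd preincubated ~20 min with enzyme/substrate, 20 mM Hepes pH 7.5, 10 mM MgCl2, 1% DMSO. IC50 by curve fit.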

[10] = target: EGFR L858R/T790M/C797S mutant (Homo sapiens (Human), UniProt P00533, C797S/L858R/T790M); assay: HotSpot radiometric kinase assay, EGFR L858R/T790M/C797S mutant; details: 10 μM ATP
Sequence of EGFR L858R/T790M/C797S mutant (P00533 25-1210 T790M/C797S/L858R): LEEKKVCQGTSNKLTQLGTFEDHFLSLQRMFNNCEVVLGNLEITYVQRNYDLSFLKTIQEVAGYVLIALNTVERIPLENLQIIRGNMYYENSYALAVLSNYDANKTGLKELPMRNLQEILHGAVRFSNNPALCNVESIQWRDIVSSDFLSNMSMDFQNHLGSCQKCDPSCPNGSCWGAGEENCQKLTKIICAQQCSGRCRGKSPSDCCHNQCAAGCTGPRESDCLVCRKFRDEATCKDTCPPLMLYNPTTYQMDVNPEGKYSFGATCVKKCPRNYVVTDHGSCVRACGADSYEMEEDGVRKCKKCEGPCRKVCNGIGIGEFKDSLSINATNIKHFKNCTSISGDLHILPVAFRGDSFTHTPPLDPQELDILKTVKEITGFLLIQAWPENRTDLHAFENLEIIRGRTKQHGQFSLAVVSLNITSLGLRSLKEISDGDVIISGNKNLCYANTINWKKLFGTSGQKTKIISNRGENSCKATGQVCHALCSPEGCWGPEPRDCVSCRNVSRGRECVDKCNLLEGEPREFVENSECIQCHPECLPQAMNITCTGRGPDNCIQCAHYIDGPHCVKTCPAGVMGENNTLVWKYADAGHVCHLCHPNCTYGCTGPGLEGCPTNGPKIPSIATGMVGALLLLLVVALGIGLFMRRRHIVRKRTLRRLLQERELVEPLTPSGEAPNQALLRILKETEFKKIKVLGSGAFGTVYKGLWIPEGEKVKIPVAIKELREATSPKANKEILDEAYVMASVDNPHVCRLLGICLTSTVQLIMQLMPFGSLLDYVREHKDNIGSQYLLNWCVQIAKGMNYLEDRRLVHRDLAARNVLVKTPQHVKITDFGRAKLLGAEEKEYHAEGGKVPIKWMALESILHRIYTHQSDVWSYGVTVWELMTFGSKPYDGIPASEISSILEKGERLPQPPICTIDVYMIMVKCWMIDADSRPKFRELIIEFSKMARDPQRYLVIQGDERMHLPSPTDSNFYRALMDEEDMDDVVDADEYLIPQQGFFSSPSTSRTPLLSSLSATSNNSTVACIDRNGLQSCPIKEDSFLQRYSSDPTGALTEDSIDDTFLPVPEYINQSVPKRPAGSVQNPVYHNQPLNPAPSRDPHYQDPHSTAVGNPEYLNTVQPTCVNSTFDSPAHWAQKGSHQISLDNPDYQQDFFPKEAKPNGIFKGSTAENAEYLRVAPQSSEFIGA
Summary of the method: as §1

[11] = target: EGFR Δ746-750 mutant (Homo sapiens (Human), UniProt P00533, DEL746-750); assay: HotSpot radiometric kinase assay, EGFR Δ746-750 mutant; details: 10 μM ATP
Summary of the method: as §1

SMILES	IC50 [1] [nM]	IC50 [2] [nM]	IC50 [3] [nM]	IC50 [4] [nM]	IC50 [5] [nM]	IC50 [6] [nM]	IC50 [7] [nM]	IC50 [8] [nM]	IC50 [9] [nM]	IC50 [10] [nM]	IC50 [11] [nM]
CCOc1nn([C@@H](C)CO)c2c1/C=C/c1n[nH]c3cc(F)c(cc13)-c1cnn(C)c1O[C@H](C)CN(C(C)C)C2 [Example 229, (2S)-2-[(10R,17E)-16-ethoxy-19-fluoro-8,10-dimethyl-12-(propan-2-yl)-2,8,10,11,12,13-hexahydro-14H-3,5-ethenotripyrazolo[3,4-f:3′,4′-j:4″,3″- n][1,4]oxazacyclopentadecin-14-yl]propan-1-ol]	7.1	38.6	1000	4.05	4.07	131	59.6	68.5	24.8	1.24	1.94
Cc1c2c(nn1C)/C=C/c1n[nH]c3ccc(cc13)-c1cnn(C)c1O[C@@H](C)CN(C(C)C)C2 [Example 233, (10S,17E)-8,10,14,15-tetramethyl-12-(propan-2-yl)-2,10,11,12,13,15-hexahydro-8H-3,5-ethenotripyrazolo[4,3-f:3′,4′-j:4″,3″- n][1,4]oxazacyclopentadecine]	41.5	256	403	25	1.32	0.71	0.43	0.89	151	1.61	10.7
CCOc1nn(C)c2c1/C=C/c1n[nH]c3ccc(cc13)-c1cnn(C)c1OC1CN(C2)C1 [Example 238, (17E)-16-ethoxy-8,14-dimethyl-2,8,10,11,13,14-hexahydro-3,5-etheno-10,12-methanotripyrazolo[3,4-f:3′,4′-j:4″,3″-n][1,4]oxazacyclopentadecine]	73	219	1000	41.3	10.2	0.9	2.44	1.07	203	11.7	17.5
CC(C)Oc1nn(CCO)c2c1/C=C/c1n[nH]c3ccc(cc13)-c1cnn(C3CC3)c1O[C@@H](C)CN(C)C2 [Example 246, 2-{(10S,17E)-8-cyclopropyl-10,12-dimethyl-16-[(propan-2-yl)oxy]-2,8,10,11,12,13-hexahydro-14H-3,5-ethenotripyrazolo[3,4-f:3′,4′-j:4″,3″-n][1,4]oxazacyclopentadecin-14-yl}ethan-1-ol]	5.14	39.5	386	3.18	1.71	0.75	1.36	1.33	23.3	4.42	8.71
CC(C)Oc1nn(CCO)c2c1/C=C/c1n[nH]c3ccc(cc13)-c1cnn(C)c1O[C@@H](C)[C@H]1CCCN1C2 [Example 252, 2-[(8aR,9S,19E)-9,11-dimethyl-1-[(propan-2-yl)oxy]-7,8,8a,9,11,17-hexahydro-6H-14,16-ethenotripyrazolo[3,4-f:3′,4′-j:4″,3″-n]pyrrolo[2,1-c][1,4]oxazacyclopentadecin-3(4H)-yl]ethan-1-ol]	2.38	15.7	168	2.29	1.91	0.83	0.42	1.59	4.74	5.35	1.31
CCOc1nn(CCO)c2c1/C=C/c1n[nH]c3ccc(cc13)-c1cnn(C)c1O[C@@H](CC)CN(C)C2 [Example 260, 2-[(10S,17E)-16-ethoxy-10-ethyl-8,12-dimethyl-2,8,10,11,12,13-hexahydro-14H-3,5-ethenotripyrazolo[3,4-f:3′,4′-j:4″,3″-n][1,4]oxazacyclopentadecin-14-yl]ethan-1-ol]	4.55	25.3	361	3.74	0.9	4.9	5.21	3.15	13.6	3.19	3.5

Next, values leading:

IC50 [1] [nM]	IC50 [2] [nM]	IC50 [3] [nM]	IC50 [4] [nM]	IC50 [5] [nM]	IC50 [6] [nM]	IC50 [7] [nM]	IC50 [8] [nM]	IC50 [9] [nM]	IC50 [10] [nM]	IC50 [11] [nM]	SMILES
60.1	167	471	6.82	0.84	4.9	2.59	4.63	251	0.36	9.86	CCN1Cc2c(c(OC(C)C)nn2C[C@H](C)O)/C=C/c2n[nH]c3ccc(cc23)-c2cnn(C)c2O[C@H](C)C1 [Example 227, (2S)-1-{(10R,17E)-12-ethyl-8,10-dimethyl-16-[(propan-2-yl)oxy]-2,8,10,11,12,13-hexahydro-14H-3,5-ethenotripyrazolo[3,4-f:3′,4′-j:4″,3″- n][1,4]oxazacyclopentadecin-14-yl}propan-2-ol]
25.2	481	1000	44.4	25.9	21.9	8.6	34	52.7	10.6	12.2	CCOc1nn([C@@H](C)CO)c2c1/C=C/c1n[nH]c3cc(F)c(cc13)-c1cnn(C)c1OC[C@H](C)N(C(C)C)C2 [Example 228, (2S)-2-[(11S,17E)-16-ethoxy-19-fluoro-8,11-dimethyl-12-(propan-2-yl)-2,8,10,11,12,13-hexahydro-14H-3,5-ethenotripyrazolo[3,4-f:3′,4′-j:4″,3″- n][1,4]oxazacyclopentadecin-14-yl]propan-1-ol]
12	68.9	397	11.5	0.8	0.66	1.73	1.03	26.8	1.06	5.11	CCOc1nn(C)c2c1/C=C/c1n[nH]c3ccc(cc13)-c1cnn(C)c1O[C@@H]1CCN(C2)C1 [Example 236, (10R,18E)-17-ethoxy-8,15-dimethyl-2,8,11,12,14,15-hexahydro-10H-3,5-etheno-10,13-methanotripyrazolo[3,4-g:3′,4′-k:4″,3″- o][1,5]oxazacyclohexadecine]
775	> 1000	1000	653	5.92	1.12	12.5	1.52	> 1000	10.5	826	CCOc1nccc2c1/C=C/c1n[nH]c3ccc(cc13)-c1cnn(C)c1O[C@@H](C)CN(C)C2 [Example 240, (10S,18E)-17-ethoxy-8,10,12-trimethyl-2,8,10,11,12,13-hexahydro-3,5-ethenodipyrazolo[3,4-j:4′,3′-n]pyrido[4,3-f][1,4]oxazacyclopentadecine]
1.56	15.8	17.2	1.26	0.48	0.5	0.23	1.04	5.72	2.17	1.22	CC(C)Oc1nn(CCO)c2c1/C=C/c1n[nH]c3ccc(cc13)-c1cnn(C)c1O[C@@H](CO)CN(C)C2 [Example 258, 2-{(10R,17E)-10-(hydroxymethyl)-8,12-dimethyl-16-[(propan-2-yl)oxy]-2,8,10,11,12,13-hexahydro-14H-3,5-ethenotripyrazolo[3,4-f:3′,4′-j:4″,3″-n][1,4]oxazacyclopentadecin-14-yl}ethan-1-ol]
66.5	500	1000	22.9	9.39	0.9	4.29	1.3	329	21.8	40.1	CCOc1nn(CCO)c2c1/C=C/c1n[nH]c3ccc(cc13)-c1cnn(C)c1OC[C@H](CC)N(C)C2 [Example 259, 2-[(11S,17E)-16-ethoxy-11-ethyl-8,12-dimethyl-2,8,10,11,12,13-hexahydro-14H-3,5-ethenotripyrazolo[3,4-f:3′,4′-j:4″,3″-n][1,4]oxazacyclopentadecin-14-yl]ethan-1-ol]
